Assays:
Assay in all cases: relative viability (nuclei count vs DMSO), 5 days (fraction); higher = more cells survive
EKVX = tested on: EKVX
How it was run: (§1)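 Five library-drug doses in √10 steps were combined with a fixed anchor-drug dose, or a single drug was given alone, by pin tool to lung cancer cell lines in 1536-well plates the day after seeding. Nuclei were stained and counted after 5 days. Relative viability is the nuclei count in treated wells over that in vehicle wells, taken as the median of duplicate plates.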

HARA = tested on: HARA
How it was run: as §1

SK-MES-1 = tested on: SK-MES-1
How it was run: as §1

BEN = tested on: BEN
How it was run: as §1

A-427 = tested on: A-427
How it was run: as §1

NCI-H1437 = tested on: NCI-H1437
How it was run: as §1

NCI-H650 = tested on: NCI-H650
How it was run: as §1

HCC-15 = tested on: HCC-15
How it was run: as §1

LK-2 = tested on: LK-2
How it was run: as §1

COR-L23 = tested on: COR-L23
How it was run: as §1

COR-L 105 = tested on: COR-L 105
How it was run: as §1

Q: How did the relative viability (EKVX; first compound 0.005 µM) turn out when `CC1(C)CCC(c2ccc(Cl)cc2)=C(CN2CCN(c3ccc(C(=O)NS(=O)(=O)c4ccc(N[C@H](CCN5CCOCC5)CSc5ccccc5)c(S(=O)(=O)C(F)(F)F)c4)cc3)CC2)C1` [Navitoclax] + Cc1nc(NC(=O)N2CCC[C@H]2C(N)=O)sc1-c1ccnc(C(C)(C)C(F)(F)F)c1 [Alpelisib] (partner 2 µM) was run?
A: 0.828

Q: And the relative viability (EKVX; first compound 0.01581 µM)?
A: 1.15

Q: And the relative viability (EKVX; first compound 0.05 µM)?
A: 0.765

Q: What about the relative viability (EKVX; first compound 0.1581 µM) of the same molecule?
A: 0.928

Q: And the relative viability (EKVX; first compound 0.5 µM)?
A: 0.833

Q: And the relative viability (HARA; first compound 0.005 µM)?
A: 0.657

Q: And the relative viability (HARA; first compound 0.01581 µM)?
A: 1.05

Q: What about the relative viability (HARA; first compound 0.05 µM) of the same molecule?
A: 0.622

Q: What about the relative viability (HARA; first compound 0.1581 µM) of the same molecule?
A: 0.881

Q: And the relative viability (HARA; first compound 0.5 µM)?
A: 0.898

Q: What about the relative viability (SK-MES-1; first compound 0.005 µM) of the same molecule?
A: 0.761

Q: And the relative viability (SK-MES-1; first compound 0.01581 µM)?
A: 1.01

Q: And the relative viability (SK-MES-1; first compound 0.05 µM)?
A: 0.922

Q: And the relative viability (SK-MES-1; first compound 0.1581 µM)?
A: 0.827

Q: And the relative viability (SK-MES-1; first compound 0.5 µM)?
A: 1.04

Q: And the relative viability (BEN; first compound 0.005 µM)?
A: 0.983

Q: What about the relative viability (BEN; first compound 0.01581 µM) of the same molecule?
A: 1.13

Q: And the relative viability (BEN; first compound 0.05 µM)?
A: 1.02

Q: And the relative viability (BEN; first compound 0.1581 µM)?
A: 1.08

Q: And the relative viability (BEN; first compound 0.5 µM)?
A: 0.831

Q: What about the relative viability (A-427; first compound 0.005 µM) of the same molecule?
A: 1.01

Q: What about the relative viability (A-427; first compound 0.01581 µM) of the same molecule?
A: 1.06

Q: What about the relative viability (A-427; first compound 0.05 µM) of the same molecule?
A: 0.908

Q: What about the relative viability (A-427; first compound 0.1581 µM) of the same molecule?
A: 1.14

Q: And the relative viability (A-427; first compound 0.5 µM)?
A: 1.04

Q: What about the relative viability (NCI-H1437; first compound 0.005 µM) of the same molecule?
A: 0.885

Q: And the relative viability (NCI-H1437; first compound 0.01581 µM)?
A: 1.04

Q: And the relative viability (NCI-H1437; first compound 0.05 µM)?
A: 0.98

Q: What about the relative viability (NCI-H1437; first compound 0.1581 µM) of the same molecule?
A: 1.05

Q: What about the relative viability (NCI-H1437; first compound 0.5 µM) of the same molecule?
A: 0.871

Q: And the relative viability (NCI-H650; first compound 0.005 µM)?
A: 1.1

Q: What about the relative viability (NCI-H650; first compound 0.01581 µM) of the same molecule?
A: 1.15

Q: And the relative viability (NCI-H650; first compound 0.05 µM)?
A: 1.15

Q: And the relative viability (NCI-H650; first compound 0.1581 µM)?
A: 1.11

Q: And the relative viability (NCI-H650; first compound 0.5 µM)?
A: 1.16

Q: What about the relative viability (HCC-15; first compound 0.005 µM) of the same molecule?
A: 0.879

Q: What about the relative viability (HCC-15; first compound 0.01581 µM) of the same molecule?
A: 0.957

Q: What about the relative viability (HCC-15; first compound 0.05 µM) of the same molecule?
A: 0.88

Q: What about the relative viability (HCC-15; first compound 0.1581 µM) of the same molecule?
A: 0.882

Q: What about the relative viability (HCC-15; first compound 0.5 µM) of the same molecule?
A: 0.764

Q: What about the relative viability (LK-2; first compound 0.005 µM) of the same molecule?
A: 0.919

Q: What about the relative viability (LK-2; first compound 0.01581 µM) of the same molecule?
A: 1.29

Q: What about the relative viability (LK-2; first compound 0.05 µM) of the same molecule?
A: 1.12

Q: And the relative viability (LK-2; first compound 0.1581 µM)?
A: 0.997

Q: And the relative viability (LK-2; first compound 0.5 µM)?
A: 1.08

Q: What about the relative viability (COR-L23; first compound 0.005 µM) of the same molecule?
A: 0.67

Q: And the relative viability (COR-L23; first compound 0.01581 µM)?
A: 0.807

Q: What about the relative viability (COR-L23; first compound 0.05 µM) of the same molecule?
A: 0.697

Q: What about the relative viability (COR-L23; first compound 0.1581 µM) of the same molecule?
A: 0.7

Q: What about the relative viability (COR-L23; first compound 0.5 µM) of the same molecule?
A: 0.855

Q: And the relative viability (COR-L 105; first compound 0.005 µM)?
A: 0.878

Q: And the relative viability (COR-L 105; first compound 0.01581 µM)?
A: 1.22

Q: What about the relative viability (COR-L 105; first compound 0.05 µM) of the same molecule?
A: 0.989

Q: And the relative viability (COR-L 105; first compound 0.1581 µM)?
A: 1.07

Q: And the relative viability (COR-L 105; first compound 0.5 µM)?
A: 0.978
